Laboratory results: paper PMC6120666 (The EMBO Journal, 2018)

What was measured:
U2OS/NOD2 cells = assay: Intracellular flow cytometry of CXCL8 after L18-MDP; assay type: cell-based, human; conditions: U2OS/NOD2 RIPK2 KO cells reconstituted with T95W gatekeeper mutant; L18-MDP 200 ng/ml, 4 h
Experimental: Purified material and lysates were analyzed by immunoblotting. […] Numbering below schematic refers to amino acid residues in human RIPK2 and indicate domain boundaries. […] Data information: Data in (A, B, D, H) represent the mean ± SEM of 2–4 independent experiments, each performed in duplicate. […] Two‐way ANOVA was used to determine statistical significance. See also Fig EV1.Source data are available online for this figure.
Dark gray represents areas occupied by RIPK2; white areas indicate empty spaces in CSLP binding pocket. […] Dotted black box indicates region shown for models with CSLP37 and CSLP43. • Molecular docking model of RIPK2 kinase domain in complex with CSLP43 (green) based on RIPK2/CSLP18 structure from (D). […] Two‐way ANOVA was used to determine statistical significance. See also Fig EV2.
(§1) GST-BIR2-XIAP as indicated. Intensity quantification of SPOTs was performed using ImageJ software
(§2) Dual luciferase reporter assay
(§3) Intracellular flow cytometry of CXCL8
(§4) for cell death) or vehicle for 24h. Viability was determined using the CellTiter-Glo® luminescent cell
(§5) together with Transfection Carrier DNA (Promega).
(§6) After addition of Nano-Glo

[1] = biological target: T1, XIAP BIR2 - RIPK2 interaction (Homo sapiens, UniProt O43353); assay: GST-BIR2-XIAP pulldown of RIPK2; assay type: binding; conditions: U2OS/NOD2 lysates; inhibitors at 100-fold IC50 of RIPK2 kinase activity
T1 construct: U2OS/NOD2 cells were lysed in TBS lysis buffer; endogenous in cells; host or cells: U2OS/NOD2 cell lysate (RIPK2); E. coli BL21 (GST-BIR2-XIAP)
Experimental: (§7) For co‐immunoprecipitation of HA‐XIAP with RIPK2, transfected and treated cells were lysed in TBS buffer containing 0.5% NP‐40, cOmplete and PhosSTOP inhibitors (Roche) and the lysate was cleared by centrifugation. The lysates were incubated with anti‐HA‐agarose overnight, washed 3× with lysis buffer, and analyzed by immunoblotting. For GST pulldown experiments, U2OS/NOD2 cells were lysed in TBS lysis buffer containing 0.5% NP‐40, cOmplete and PhosSTOP inhibitors (Roche). Cleared lysates were pretreated with kinase inhibitors or DMSO and incubated with GST‐XIAP‐BIR2 bound to Glutathione Sepharose at 4°C overnight. Bound material was washed 3× with lysis buffer or PBS, eluted with 15 mM Glutathione in PBS, and analyzed by immunoblotting. […] The bound material was eluted and analyzed as described above.
(§8) For coimmunoprecipitation of HA-XIAP with RIPK2, transfected and treated cells were lysed in TBS buffer containing 0.5% NP-40, cOmplete and PhosSTOP inhibitors (Roche) and the lysate was cleared by centrifugation. The lysates were incubated with anti-HA-agarose overnight, washed 3x with lysis buffer and analyzed by immunoblotting. For GST pull-down experiments, U2OS/NOD2 were lysed in TBS lysis buffer containing 0.5% NP-40, cOmplete and PhosSTOP inhibitors (Roche).
Cleared lysates were pretreated with kinase inhibitors or DMSO and incubated with GST-XIAP-BIR2 bound to Glutathione Sepharose at 4 °C overnight. Bound material was washed 3x with lysis buffer or PBS, eluted with 15 mM Glutathione in PBS and analyzed by immunoblotting. In pull-down […]
inhibitors or DMSO control in PBS were added together with RIPK2 kinase domain to GST-XIAP-BIR2 bound to Glutathione Sepharose. The bound material was eluted and analyzed as described above. […]

[2] = tested on: RIPK2 ubiquitination in U2OS/NOD2 and THP-1 cells; assay: Purification of Ub-conjugates (TUBE pulldown), RIPK2 ubiquitination; assay type: cell-based, human
Experimental: as §7, with “above. […]” for “above.”
PBS, eluted with 15 mM Glutathione in PBS and analyzed by immunoblotting. […]

[3] = biological target: T2, NanoLuc-RIPK2 WT and T95W (Homo sapiens, UniProt O43353, T95W); assay: nanoBRET assay in HEK293 cells with SGC-590001 probe; assay type: binding; conditions: up to more than 100 nM
T2 construct: expressed in transfected cells; host or cells: HEK293 cells
Experimental: Purified material and lysates were analyzed by immunoblotting. […] Two‐way ANOVA was used to determine statistical significance.
as §1, §2, §3, §4, §5, §6

[4] = biological target: T3, XIAP-RIPK2 interaction in HEK293FT cells (Homo sapiens, UniProt O43353); assay: Co-immunoprecipitation of HA-XIAP with endogenous RIPK2; assay type: cell-based; conditions: 200 nM
T3 construct: endogenous RIPK2 from HEK293FT cells; endogenous in cells; host or cells: HEK293FT cells (RIPK2 endogenous; 3xHA-XIAP-F495A transfected)
Experimental: Purified material and lysates were analyzed by immunoblotting. • Pulldown of RIPK2 from U2OS/NOD2 cell lysates with recombinant GST‐BIR2‐XIAP in the presence of CSLP inhibitors. […] Purified material and lysates were analyzed by immunoblotting. • Pulldown of recombinant RIPK2 kinase domain (dephosphorylated) with recombinant GST‐BIR2‐XIAP in the presence of CSLP inhibitors as indicated. Inhibitors were used at the same concentrations as in (C). Purified material and lysates were analyzed by immunoblotting. • Purification of Ub‐conjugates from THP‐1 cells after treatment with L18‐MDP (200 ng/ml, 1 h) and CSLP inhibitors as indicated. Purified material and lysates were analyzed by immunoblotting. […]
For co‐immunoprecipitation of HA‐XIAP with RIPK2, transfected and treated cells were lysed in TBS buffer containing 0.5% NP‐40, cOmplete and PhosSTOP inhibitors (Roche) and the lysate was cleared by centrifugation. The lysates were incubated with anti‐HA‐agarose overnight, washed 3× with lysis buffer, and analyzed by immunoblotting. […] Bound material was washed 3× with lysis buffer or PBS, eluted with 15 mM Glutathione in PBS, and analyzed by immunoblotting. […] The bound material was eluted and analyzed as described above. […]
(§9) Ubiquitin conjugates were purified from treated cells using GST-1xUBAubq ubiquitin affinity reagent and analyzed by immunoblotting as described (Fiil et al., 2013). […]

GST-BIR2-XIAP [5] = biological target: T4, GST-BIR2-XIAP (Homo sapiens, UniProt P98170); assay: SPOT peptide assay; assay type: binding; conditions: GST-tagged WT BIR2
T4 construct: XIAP BIR2 domain (aa 124-242) into pGTVL2 vector in frame with N-terminal HIS and GST tags; made in house; host or cells: E. coli (BL21)
Experimental: (§10) Cellulose‐bound peptide arrays were prepared employing standard Fmoc solid‐phase peptide synthesis using a MultiPep‐RSi‐Spotter (INTAVIS, Köln, Germany) as previously described (Picaud & Filippakopoulos, 2015). The assay was performed using recombinant 6xHIS‐GST‐BIR2 domain of XIAP protein, and bound protein was detected using anti‐His antibody HRP‐conjugated.
as §8, with “For GST pull-down experiments, U2OS/NOD2 were lysed in TBS lysis buffer containing 0.5% NP-40, cOmplete and PhosSTOP inhibitors (Roche).” left out
(§11) Cleared lysates were pretreated with kinase inhibitors or DMSO and incubated with GST-XIAP-BIR2 bound to Glutathione Sepharose at 4 °C overnight. Bound material was washed 3x with lysis buffer or PBS, eluted with 15 mM Glutathione in PBS and analyzed by immunoblotting. […] The bound material was eluted and analyzed as described above.
as §9
(§12) Proteins bound to peptides were detected using anti-His antibody HPR conjugated (diluted 1:15000) and the Pierce® ECL Western blotting Substrate (#32106, Thermo Fisher Scientific). […]

GST-BIR2-XIAP [6] = biological target: T5, GST-BIR2-XIAP (Homo sapiens, UniProt P98170, D214S); assay: SPOT peptide assay; assay type: binding; conditions: D214S mutant BIR2
T5 construct: XIAP BIR2 domain (aa 124-242) into pGTVL2 vector in frame with N-terminal HIS and GST tags; made in house; host or cells: E. coli (BL21)
Experimental: as §10
as §8, with “For GST pull-down experiments, U2OS/NOD2 were lysed in TBS lysis buffer containing 0.5% NP-40, cOmplete and PhosSTOP inhibitors (Roche).” left out
as §11, §9, §12

binding of WT XIAP BIR2 domain to peptide (GST-BIR2-XIAP [5])	binding of D214S versus WT BIR2 domain to peptide (GST-BIR2-XIAP [6])	Compound	inhibition of NOD2 signaling (CXCL8) in cells expressing RIPK2 T95W (U2OS/NOD2 cells)	pulldown of RIPK2 by GST-BIR2-XIAP from cell lysates [1]	ubiquitination of kinase-dead RIPK2 variants after NOD2 stimulation ([2]; U2OS/NOD2 RIPK2 KO cells reconstituted with K47R or D146N)	RIPK2 ubiquitination after L18-MDP ([2]; U2OS/NOD2 or THP-1 cells, L18-MDP 200 ng/ml, 1 h)	binding to RIPK2 T95W in cells [3]	co-immunoprecipitation of endogenous RIPK2 with HA-XIAP [4]
–	–	Cc1ccc(C(=O)Nc2ccc(CN3CCN(C)CC3)c(C(F)(F)F)c2)cc1C#Cc1cnc2cccnn12 [ponatinib, reference compound]	largely abolished the inhibitory effect	interfered	prevented ubiquitination	antagonized	ablated the binding	prevented
binds predominantly	reduced	A-S-G-T-V-S-S-A-R-H-A-D-W-R-V (ASGTVSSARHADWRV) [A13, RIPK2 15-mer SPOT peptide, residues 28-42]	–	–	–	–	–	–
